Measured values as given in ChEMBL document CHEMBL5727596, “Tetrahydroisoquinoline derivatives useful as inhibitors of diacylglyceride O-acyltransferase 2” (2020).

biological target: T1, Diacylglycerol O-acyltransferase 2 (Homo sapiens, UniProt Q96PD7); assay: Enzymatic Activity Assay: DGAT2 activity was determined by measuring the amount of enzymatic product triolein (1,2,3-Tri(cis-9-octadecenoyl)glycerol) using the membrane prep mentioned above. The assay was carried out in deep well 384 plates in a final volume of 40 μL at room temperature. The assay mixture contained the following: assay buffer (100 mM Tris.Cl, pH 7.0, 20 mM MgCl2, 5% ethanol), 25 μM of diolein, 10 μM of oleoyl-CoA and 10 ng/μL of DGAT2 membrane.
T1 sequence (Q96PD7 whole entry): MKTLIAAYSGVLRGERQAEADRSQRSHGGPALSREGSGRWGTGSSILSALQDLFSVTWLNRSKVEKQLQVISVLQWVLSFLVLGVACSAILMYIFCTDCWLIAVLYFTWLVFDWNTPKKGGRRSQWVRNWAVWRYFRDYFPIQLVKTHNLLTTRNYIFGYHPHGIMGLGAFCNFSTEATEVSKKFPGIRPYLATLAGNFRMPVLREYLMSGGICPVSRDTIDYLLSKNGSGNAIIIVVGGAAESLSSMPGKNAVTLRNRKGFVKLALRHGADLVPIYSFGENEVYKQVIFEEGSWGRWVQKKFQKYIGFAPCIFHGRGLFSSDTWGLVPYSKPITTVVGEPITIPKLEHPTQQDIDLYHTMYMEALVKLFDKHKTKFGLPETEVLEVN

| Structure (SMILES) | IC50 [µM] |
| --- | --- |
| COC(=O)c1cccc(-c2ccc(CNC(=O)C3CC3c3ccccc3)c3c2CCN(Cc2ccncc2)C3)c1 (mixture of isomers) | 2.41 |
| COC(=O)c1cccc(-c2ccc(CNC(=O)C3CC3c3ccccc3)c3c2CCN(C(=O)c2ccccn2)C3)c1 (mixture of isomers) | 0.249 |
| CCCCC(CC)CNC(=O)N1CCc2c(-c3cccc(OC)c3)ccc(CNC(=O)[C@@H]3C[C@H]3c3ccccc3)c2C1 (relative stereo) | 0.249 |
| CCCNC(=O)N1CCc2c(-c3cccc(OC)c3)ccc(CNC(=O)[C@@H]3C[C@H]3c3nc(C)no3)c2C1 (relative stereo) | 0.0083 |
| COc1cccc(-c2ccc(CNC(=O)[C@@H]3C[C@H]3c3ccccc3)c3c2CCN(C(=O)NC(C)C(C)C)C3)c1 (mixture of isomers) | 0.0238 |
| Cc1noc([C@H]2C[C@@H]2C(=O)NCc2ccc(-c3cccc(C(F)(F)F)c3)c3c2CN(C(=O)NC(C)(C)C)CC3)n1 (relative stereo) | 0.0058 |
| COc1cccc(-c2ccc(CNC(=O)[C@H]3C[C@@H]3c3nc(C)no3)c3c2CCN(C(=O)C(C)(C)O)C3)c1 (relative stereo) | 0.723 |

The remaining molecules from weak to strong by IC50, led by results:

| IC50 [µM] | Structure (SMILES) |
| --- | --- |
| 2.8 | COC(=O)c1cccc(-c2ccc(CNC(=O)C3CC3c3ccccc3)c3c2CCN(Cc2cc(C)n(C4CC4)c2C)C3)c1 (mixture of isomers) |
| 0.512 | Cc1noc([C@@H]2C[C@H]2C(=O)NCc2ccc(-c3cncc(C(C)(C)O)c3)c3c2CN(C(=O)NC(C)(C)C)CC3)n1 (relative stereo) |
| 0.0226 | COc1cccc(-c2ccc(CNC(=O)[C@@H]3C[C@H]3c3ccccc3)c3c2CCN(C(=O)NC2CC2)C3)c1 (mixture of isomers) |
